The NIST ThermoML archive (doi:10.1016/j.jct.2013.01.023)
Numbers after ± are expanded uncertainties.

Experiment: mn = molality of the nth substance listed, in mol/kg
Conditions: 101 kPa, Liquid; for mass density: Vibrating tube method; for speed of sound: Pulse-echo method

NCC(=O)O [2-aminoacetic acid] + O
Conditions	mass density, 288.15 K [kg/m3]	mass density, 293.15 K [kg/m3]	mass density, 298.15 K [kg/m3]	mass density, 303.15 K [kg/m3]	mass density, 308.15 K [kg/m3]	speed of sound, 298.15 K [m/s]
m1 = 0.06261	1001.13 ± 0.11	1000.21 ± 0.11	999.029 ± 0.11	997.604 ± 0.11	995.978 ± 0.11	1499.9 ± 0.97
m1 = 0.1199	1002.98 ± 0.11	1002.03 ± 0.11	1000.83 ± 0.11	–	997.751 ± 0.11	1502.8 ± 0.98
m1 = 0.1769	1004.8 ± 0.11	1003.84 ± 0.11	1002.62 ± 0.11	1001.15 ± 0.11	999.494 ± 0.11	1505.8 ± 0.98
m1 = 0.2352	1006.65 ± 0.11	1005.66 ± 0.11	1004.42 ± 0.11	1002.94 ± 0.11	1001.28 ± 0.11	1508.8 ± 0.98
m1 = 0.2963	1008.56 ± 0.11	1007.54 ± 0.11	1006.29 ± 0.11	1004.79 ± 0.11	1003.12 ± 0.11	1512 ± 0.98

CN(C)CC(=O)O [(Dimethylamino)acetic acid] + O
Conditions	mass density, 288.15 K [kg/m3]	mass density, 293.15 K [kg/m3]	mass density, 298.15 K [kg/m3]	mass density, 303.15 K [kg/m3]	mass density, 308.15 K [kg/m3]	speed of sound, 298.15 K [m/s]
m1 = 0.05966	1000.46 ± 0.11	999.537 ± 0.11	998.354 ± 0.11	996.925 ± 0.11	995.303 ± 0.11	1500.9 ± 0.98
m1 = 0.119	1001.8 ± 0.11	1000.85 ± 0.11	999.646 ± 0.11	998.203 ± 0.11	996.574 ± 0.11	1505.1 ± 0.98
m1 = 0.1791	1003.14 ± 0.11	1002.16 ± 0.11	1000.94 ± 0.11	999.477 ± 0.11	997.836 ± 0.11	1509.4 ± 0.98
m1 = 0.2399	1004.48 ± 0.11	1003.48 ± 0.11	1002.23 ± 0.11	1000.75 ± 0.11	999.104 ± 0.11	1513.6 ± 0.99
m1 = 0.3007	1005.8 ± 0.11	1004.78 ± 0.11	1003.51 ± 0.11	1002.02 ± 0.11	1000.37 ± 0.11	1517.9 ± 0.99

C[N+](C)(C)CC(=O)[O-] [(trimethylammonio)acetate] + O
Conditions	mass density, 288.15 K [kg/m3]	mass density, 293.15 K [kg/m3]	mass density, 298.15 K [kg/m3]	mass density, 303.15 K [kg/m3]	mass density, 308.15 K [kg/m3]	speed of sound, 298.15 K [m/s]
m1 = 0.06226	1000.25 ± 0.11	999.33 ± 0.11	998.149 ± 0.11	996.726 ± 0.11	995.1 ± 0.11	1501.3 ± 0.97
m1 = 0.125	1001.4 ± 0.11	1000.46 ± 0.11	999.253 ± 0.11	997.814 ± 0.11	996.18 ± 0.11	1505.9 ± 0.98
m1 = 0.1884	1002.54 ± 0.11	1001.57 ± 0.11	1000.35 ± 0.11	998.899 ± 0.11	997.254 ± 0.11	1510.5 ± 0.98
m1 = 0.2532	1003.69 ± 0.11	1002.7 ± 0.11	1001.46 ± 0.11	999.994 ± 0.11	998.337 ± 0.11	1515.2 ± 0.98
m1 = 0.3185	1004.83 ± 0.11	1003.83 ± 0.11	1002.56 ± 0.11	1001.08 ± 0.11	999.42 ± 0.11	1519.9 ± 0.99

CNCC(=O)O [sarcosine] + O
Conditions	mass density, 288.15 K [kg/m3]	mass density, 293.15 K [kg/m3]	mass density, 298.15 K [kg/m3]	mass density, 303.15 K [kg/m3]	mass density, 308.15 K [kg/m3]	speed of sound, 298.15 K [m/s]
m1 = 0.05883	1000.7 ± 0.11	999.78 ± 0.11	998.598 ± 0.11	997.176 ± 0.11	995.552 ± 0.11	1500.3 ± 0.97
m1 = 0.1166	1002.25 ± 0.11	1001.31 ± 0.11	1000.12 ± 0.11	998.68 ± 0.11	997.042 ± 0.11	1503.9 ± 0.98
m1 = 0.1777	1003.88 ± 0.11	1002.92 ± 0.11	1001.7 ± 0.11	1000.25 ± 0.11	998.599 ± 0.11	1507.7 ± 0.98
m1 = 0.2363	1005.42 ± 0.11	1004.43 ± 0.11	1003.2 ± 0.11	1001.74 ± 0.11	1000.07 ± 0.11	1511.3 ± 0.98
m1 = 0.2987	1007.05 ± 0.11	1006.03 ± 0.11	1004.79 ± 0.11	1003.31 ± 0.11	1001.63 ± 0.11	1515.2 ± 0.98

C[N+](C)(C)[O-] [trimethylamine oxide] + O
Conditions	mass density, 288.15 K [kg/m3]	mass density, 293.15 K [kg/m3]	mass density, 298.15 K [kg/m3]	mass density, 303.15 K [kg/m3]	mass density, 308.15 K [kg/m3]	speed of sound, 298.15 K [m/s]
m1 = 0.0592	999.725 ± 0.38	998.807 ± 0.37	997.629 ± 0.36	996.213 ± 0.35	994.58 ± 0.34	1500.9 ± 2.7
m1 = 0.1182	1000.29 ± 0.7	999.358 ± 0.68	998.163 ± 0.66	996.73 ± 0.64	995.083 ± 0.63	1505.1 ± 5.1
m1 = 0.1768	1000.88 ± 1	999.919 ± 1	998.707 ± 0.97	997.258 ± 0.94	995.602 ± 0.91	1509.2 ± 7.5
m1 = 0.2361	1001.44 ± 1.4	1000.47 ± 1.4	999.234 ± 1.4	997.769 ± 1.3	996.09 ± 1.3	1513.3 ± 9.9
m1 = 0.2958	1002.09 ± 1.9	1001.09 ± 1.6	999.839 ± 1.6	998.357 ± 1.5	996.661 ± 1.7	1517.4 ± 12
